Holding throughout (assay type): biochemical
For one experiment, the target named is PI3K-alpha (Homo sapiens, UniProt P42336). The experiment can be described thus: PI3K-alpha fluorescence polarization assay. The note with it: read-out: PI3Kα Avg. IC50.
For a further experiment, the target named is PI3K-gamma (Homo sapiens, UniProt P48736). Kind of experiment: PI3K-gamma fluorescence polarization assay. To be noted: PI3Kγ Avg. IC50. In outline:
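FP displacement read-out: 100 nM GST-GRP1 PH domain plus 5 nM BODIPY-TMR-IP4 added after EDTA stop. Preceding kinase step: 5 ng enzyme, diC8-PI(4,5)P2 2.5 μM, ATP 25 μM, MgCl2 2.5 mM, HEPES 5 mM pH 7, one hour, 25° C.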
Background: Fluorescence polarisation rises when a labelled molecule tumbles more slowly, as on binding a larger partner.

In the next experiment the target is T1, human TOR (Homo sapiens, UniProt P42345).
T1 construct: FLAG
The experiment can be described thus: mTOR enzyme assay (DELFIA, His6-S6K substrate). The note with it: read-out: mTOR Kinase Avg. IC50.

Here are results for 22 molecules from US20090311217A1, “3-SUBSTITUTED-1H-INDOLE COMPOUNDS, THEIR USE AS MTOR KINASE AND PI3 KINASE INHIBITORS, AND THEIR SYNTHESES” (priority 2008, published 2009).

PI3K-alpha, sequence (P42336 whole entry, species assumed): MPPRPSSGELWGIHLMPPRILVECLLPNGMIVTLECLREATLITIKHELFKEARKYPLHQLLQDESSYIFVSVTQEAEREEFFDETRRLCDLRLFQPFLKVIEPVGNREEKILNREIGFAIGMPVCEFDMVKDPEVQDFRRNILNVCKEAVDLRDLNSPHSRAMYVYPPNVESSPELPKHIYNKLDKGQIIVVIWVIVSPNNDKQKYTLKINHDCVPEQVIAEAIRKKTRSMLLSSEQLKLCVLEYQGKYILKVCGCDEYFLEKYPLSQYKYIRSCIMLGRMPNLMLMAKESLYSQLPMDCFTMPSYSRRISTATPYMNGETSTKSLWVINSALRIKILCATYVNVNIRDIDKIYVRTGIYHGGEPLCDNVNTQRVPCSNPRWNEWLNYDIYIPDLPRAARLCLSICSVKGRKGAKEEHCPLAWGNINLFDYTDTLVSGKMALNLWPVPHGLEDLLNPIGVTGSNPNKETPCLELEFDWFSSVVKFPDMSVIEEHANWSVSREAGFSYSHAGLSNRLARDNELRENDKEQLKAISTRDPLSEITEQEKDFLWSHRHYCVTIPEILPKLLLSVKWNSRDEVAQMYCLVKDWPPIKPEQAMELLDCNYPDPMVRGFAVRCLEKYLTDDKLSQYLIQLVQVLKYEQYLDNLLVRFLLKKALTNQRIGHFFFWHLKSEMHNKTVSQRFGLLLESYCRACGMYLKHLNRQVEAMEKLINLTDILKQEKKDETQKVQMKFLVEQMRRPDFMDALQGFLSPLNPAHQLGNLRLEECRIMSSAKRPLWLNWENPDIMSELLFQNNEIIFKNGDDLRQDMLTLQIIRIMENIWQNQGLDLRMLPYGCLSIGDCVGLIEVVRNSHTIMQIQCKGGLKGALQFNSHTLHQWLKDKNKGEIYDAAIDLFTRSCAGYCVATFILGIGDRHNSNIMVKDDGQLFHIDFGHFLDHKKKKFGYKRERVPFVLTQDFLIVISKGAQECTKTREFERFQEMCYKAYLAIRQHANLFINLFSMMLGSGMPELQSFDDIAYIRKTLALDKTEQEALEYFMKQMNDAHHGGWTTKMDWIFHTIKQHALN
PI3K-alpha, sequence (P27986 whole entry partner, species assumed): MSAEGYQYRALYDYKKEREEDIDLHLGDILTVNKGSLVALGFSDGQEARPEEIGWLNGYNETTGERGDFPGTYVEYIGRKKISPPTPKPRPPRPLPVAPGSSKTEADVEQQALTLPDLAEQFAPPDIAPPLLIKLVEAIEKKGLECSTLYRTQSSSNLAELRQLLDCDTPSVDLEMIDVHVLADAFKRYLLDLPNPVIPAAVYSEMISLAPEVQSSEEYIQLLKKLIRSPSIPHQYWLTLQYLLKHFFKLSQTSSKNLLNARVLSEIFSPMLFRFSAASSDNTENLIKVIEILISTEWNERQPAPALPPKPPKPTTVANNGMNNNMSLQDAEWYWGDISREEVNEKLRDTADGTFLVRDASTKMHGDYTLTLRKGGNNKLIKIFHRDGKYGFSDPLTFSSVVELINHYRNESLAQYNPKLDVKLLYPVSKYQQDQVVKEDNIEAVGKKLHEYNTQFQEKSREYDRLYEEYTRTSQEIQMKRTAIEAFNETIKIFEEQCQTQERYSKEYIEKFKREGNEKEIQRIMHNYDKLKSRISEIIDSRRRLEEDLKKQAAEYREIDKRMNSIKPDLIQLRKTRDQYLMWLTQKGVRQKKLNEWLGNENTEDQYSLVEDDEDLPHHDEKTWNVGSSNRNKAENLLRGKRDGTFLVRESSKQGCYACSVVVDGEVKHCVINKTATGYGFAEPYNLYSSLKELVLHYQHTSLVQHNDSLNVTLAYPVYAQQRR
PI3K-gamma, sequence (P48736 whole entry, species assumed, the tested form may be a part): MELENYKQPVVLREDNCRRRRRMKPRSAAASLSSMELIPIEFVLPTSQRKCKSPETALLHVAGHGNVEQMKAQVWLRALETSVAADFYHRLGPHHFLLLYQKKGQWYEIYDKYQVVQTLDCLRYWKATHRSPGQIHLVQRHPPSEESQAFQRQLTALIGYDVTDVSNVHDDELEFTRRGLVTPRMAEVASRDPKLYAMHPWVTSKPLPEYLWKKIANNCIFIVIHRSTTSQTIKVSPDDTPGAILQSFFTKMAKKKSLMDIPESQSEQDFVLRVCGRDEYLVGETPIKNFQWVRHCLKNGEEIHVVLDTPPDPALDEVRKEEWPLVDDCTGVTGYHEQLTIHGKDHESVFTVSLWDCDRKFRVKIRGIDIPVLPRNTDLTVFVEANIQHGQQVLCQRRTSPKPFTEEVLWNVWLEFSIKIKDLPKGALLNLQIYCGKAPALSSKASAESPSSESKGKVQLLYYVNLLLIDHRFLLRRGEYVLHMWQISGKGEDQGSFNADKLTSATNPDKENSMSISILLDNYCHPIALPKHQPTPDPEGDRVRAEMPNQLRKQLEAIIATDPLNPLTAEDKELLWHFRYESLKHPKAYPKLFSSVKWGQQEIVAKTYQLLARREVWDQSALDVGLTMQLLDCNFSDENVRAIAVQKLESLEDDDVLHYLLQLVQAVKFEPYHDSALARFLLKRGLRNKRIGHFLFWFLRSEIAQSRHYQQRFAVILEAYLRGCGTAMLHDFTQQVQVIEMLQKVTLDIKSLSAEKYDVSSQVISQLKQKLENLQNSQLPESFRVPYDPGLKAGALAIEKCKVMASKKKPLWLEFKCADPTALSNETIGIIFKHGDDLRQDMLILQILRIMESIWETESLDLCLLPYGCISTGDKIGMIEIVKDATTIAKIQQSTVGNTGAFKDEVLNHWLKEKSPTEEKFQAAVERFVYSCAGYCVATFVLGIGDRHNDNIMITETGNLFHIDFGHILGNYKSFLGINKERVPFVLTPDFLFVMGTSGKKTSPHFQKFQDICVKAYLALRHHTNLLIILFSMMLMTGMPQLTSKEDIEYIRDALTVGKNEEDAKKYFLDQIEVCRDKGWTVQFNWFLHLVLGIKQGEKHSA

As for `COc1ccc2c(c1)c(/C=C1\Oc3cc(O)cc(C)c3C1=O)c(C1CC1)n2CCN1CCN(C)CC1` [Example 464, (2Z)-2-({2-Cyclopropyl-5-methoxy-1-[2-(4-methylpiperazin-1-yl)ethyl]-1H-indol-3-yl}methylene)-6-hydroxy-4-methyl-1-benzofuran-3(2H)-one], the IC50 at PI3K-alpha came out at 13.5 nM; at PI3K-gamma, 1450 nM; on human TOR, 37.5 nM.
On the same counts, the results for `COc1ccc2c(c1)c(/C=C1\Oc3cc(O)c(Cl)cc3C1=O)c(C)n2CCN1CCN(C)CC1` [Example 456, (2Z)-5-Chloro-6-hydroxy-2-({5-methoxy-2-methyl-1-[2-(4-methylpiperazin-1-yl)ethyl]-1H-indol-3-yl}methylene)-1-benzofuran-3(2H)-one] are 90.5 nM, 4600 nM and over 20000 nM.
For `Cn1cc(/C=C2\Oc3cc(O)cc(O)c3C2=O)c2c(-c3ccccc3N)cccc21` [Example 419, (2Z)-2-{[4-(2-Aminophenyl)-1-methyl-1H-indol-3-yl]methylene}-4,6-dihydroxy-1-benzofuran-3(2H)-one], the results for the IC50 on PI3K-alpha, against PI3K-gamma and at human TOR were 1070 nM, over 10000 nM and 24 nM, respectively.
As to `CNC(=O)Nc1ccc2c(c1)C(=O)/C(=C/c1c(-c3c(C)nn(C)c3C)[nH]c3c(C(F)(F)F)cc(OC)cc13)O2` [Compound 725, 1-[(2Z)-2-{[5-methoxy-7-(trifluoromethyl)-2-(1,3,5-trimethyl-1H-pyrazol-4-yl)-1H-indol-3-yl]methylidene}-3-oxo-2,3-dihydro-1-benzofuran-5-yl]-3-methylurea], the IC50 worked out at 13 nM at PI3K-alpha, 74 nM at PI3K-gamma and 530 nM at human TOR.
As for `CCn1c(C2CCCCC2)c(/C=C2\Oc3ccc(NC(=O)Nc4ccc(C(=O)N5CCN(C)CC5)cc4)cc3C2=O)c2cc(OC)ccc21` [Compound 645, 1-{(2Z)-2-[(2-cyclohexyl-1-ethyl-5-methoxy-1H-indol-3-yl)methylene]-3-oxo-2,3-dihydro-1-benzofuran-5-yl}-3-{4-[(4-methylpiperazin-1-yl)carbonyl]phenyl}urea], the IC50 at PI3K-alpha is 1.8 nM; against PI3K-gamma it was 55 nM; on human TOR it was 185 nM.
For `COc1cc(F)c2[nH]c(-c3c(C)nn(C)c3C)c(/C=C3\Oc4ccc(NC(=O)Nc5ccc(C(=O)NCCN(C)C)cc5)cc4C3=O)c2c1` [Compound 733, N-[2-(dimethylamino)ethyl]-4-({[(2Z)-2-{[7-fluoro-5-methoxy-2-(1,3,5-trimethyl-1H-pyrazol-4-yl)-1H-indol-3-yl]methylidene}-3-oxo-2,3-dihydro-1-benzofuran-5-yl]carbamoyl}amino)benzamide], the half-inhibitory concentration (IC50) was 0.3 nM on PI3K-alpha, 3 nM at PI3K-gamma and under 1 nM on human TOR.
With `CC(=O)c1ccc(-c2cccc3c2c(/C=C2\Oc4cc(O)cc(O)c4C2=O)cn3C)cc1` [Example 372, (2Z)-2-{[4-(4-Acetylphenyl)-1-methyl-1H-indol-3-yl]methylene}-4,6-dihydroxy-1-benzofuran-3(2H)-one], the IC50 came out at 738 nM at PI3K-alpha, 3000 nM on PI3K-gamma and 26 nM at human TOR.
Regarding `COc1ccc2c(c1)c(/C=C1\Oc3cc(O)c(C)cc3C1=O)c(C)n2CCCN(C)C` [Example 459, (2Z)-2-({1-[3-(Dimethylamino)propyl]-5-methoxy-2-methyl-1H-indol-3-yl}methylene)-6-hydroxy-5-methyl-1-benzofuran-3(2H)-one], the IC50 is 191 nM on PI3K-alpha, 6690 nM at PI3K-gamma and over 20000 nM on human TOR.
Regarding `COc1ccc2c(c1)c(/C=C1\Oc3cc(NS(C)(=O)=O)ccc3C1=O)cn2CCCN(C)C` [Example 422, N-(2Z)-[2-({1-[3-(Dimethylamino)propyl]-5-methoxy-1H-indol-3-yl}methylene)-3-oxo-2,3-dihydro-1-benzofuran-6-yl]methanesulfonamide], the IC50 at PI3K-alpha is 9000 nM; against PI3K-gamma, 7640 nM; at human TOR it was over 20000 nM.
As to `COc1cc(F)c2[nH]c(-c3c(C)nn(C)c3C)c(/C=C3\Oc4ccc(NC(=O)NCCN(C)C)cc4C3=O)c2c1` [Compound 716, 1-[2-(dimethylamino)ethyl]-3-[(2Z)-2-{[7-fluoro-5-methoxy-2-(1,3,5-trimethyl-1H-pyrazol-4-yl)-1H-indol-3-yl]methylidene}-3-oxo-2,3-dihydro-1-benzofuran-5-yl]urea], the values for the IC50 at PI3K-alpha, at PI3K-gamma and on human TOR were 0.8 nM, 3.65 nM and 23 nM, respectively.
For the molecule `N#CCCCn1c(-c2ccccc2)c(C=C2Oc3cc(O)cc(O)c3C2=O)c2ccccc21` [Example 155, 4-{3-[(4,6-dihydroxy-3-oxo-1-benzofuran-2(3H)-ylidene)methyl]-2-phenyl-1H-indol-1-yl}butanenitrile], the IC50 was 516 nM at PI3K-alpha, 5350 nM against PI3K-gamma and 80 nM on human TOR.
Take `COc1ccc2[nH]c(-c3c(C)nn(C)c3C)c(/C=C3\Oc4ccc(NC(=O)Nc5ccc(C(=O)N6CCC(N(C)C)C6)cc5)cc4C3=O)c2c1` (stereo not drawn) [Compound 697, 1-(4-{[3-(dimethylamino)pyrrolidin-1-yl]carbonyl}phenyl)-3-[(2Z)-2-{[5-methoxy-2-(1,3,5-trimethyl-1H-pyrazol-4-yl)-1H-indol-3-yl]methylidene}-3-oxo-2,3-dihydro-1-benzofuran-5-yl]urea]: the IC50 was 0.25 nM at PI3K-alpha, 1.4 nM against PI3K-gamma and 1 nM on human TOR.
As to `COc1cc(F)c2[nH]c(-c3c(C)nn(C)c3C)c(/C=C3\Oc4ccc(NC(=O)NCCN)cc4C3=O)c2c1` [Compound 715, 1-(2-aminoethyl)-3-[(2Z)-2-{[7-fluoro-5-methoxy-2-(1,3,5-trimethyl-1H-pyrazol-4-yl)-1H-indol-3-yl]methylidene}-3-oxo-2,3-dihydro-1-benzofuran-5-yl]urea], the IC50 on PI3K-alpha turned out to be 0.5 nM; against PI3K-gamma it was 2.55 nM; on human TOR, 1 nM.
As for `Cn1cc(/C=C2\Oc3cc(O)cc(O)c3C2=O)c2c(-c3ccc(NC(=O)N4CCOCC4)cc3)cccc21` [Example 404, N-(4-{3-[(Z)-(4,6-dihydroxy-3-oxo-1-benzofuran-2(3H)-ylidene)methyl]-1-methyl-1H-indol-4-yl}phenyl)morpholine-4-carboxamide], the IC50 is 935 nM at PI3K-alpha, 1650 nM against PI3K-gamma and 61 nM at human TOR.
Take `Cn1cc(/C=C2\Oc3c(Br)ccc(O)c3C2=O)c2c(-c3ccccc3)cccc21` [Example 428, (2Z)-7-Bromo-4-hydroxy-2-[(1-methyl-4-phenyl-1H-indol-3-yl)methylene]benzofuran-3(2H)-one]: the IC50 was over 5000 nM at PI3K-alpha, over 5000 nM at PI3K-gamma and over 20000 nM on human TOR.
`Cn1c(-c2ccsc2)c(C=C2Oc3cc(O)cc(O)c3C2=O)c2ccccc21` [Example 194, 4,6-dihydroxy-2-{[1-methyl-2-(3-thienyl)-1H-indol-3-yl]methylene}-1-benzofuran-3(2H)-one]: the IC50 on PI3K-alpha is 837 nM; against PI3K-gamma, 3290 nM; at human TOR, 230 nM.
As to `CN(C)CCCn1c(-c2ccccc2)c(C=C2Oc3cc(O)cc(O)c3C2=O)c2ccccc21` [Example 156, 2-({1-[3-(dimethylamino)propyl]-2-phenyl-1H-indol-3-yl}methylene)-4,6-dihydroxy-1-benzofuran-3(2H)-one], the IC50 at PI3K-alpha stood at 1290 nM; against PI3K-gamma, 6000 nM; on human TOR, 1600 nM.
In the case of `COc1ccc2c(c1)c(/C=C1\Oc3cc(O)ccc3C1=O)c(C)n2CCCN1CCCC1C` (stereo not drawn) [Example 461, (2Z)-6-Hydroxy-2-({5-methoxy-2-methyl-1-[3-(2-methylpyrrolidin-1-yl)propyl]-1H-indol-3-yl}methylene)-1-benzofuran-3(2H)-one], the IC50 on PI3K-alpha was 19.5 nM; against PI3K-gamma it was 1060 nM; at human TOR, 12500 nM.
For `CNC(=O)Nc1ccc2c(c1)C(=O)/C(=C/c1c(C(=O)NC(C)(C)CO)[nH]c3ccc(OC)cc13)O2` [Compound 622, N-(2-hydroxy-1,1-dimethylethyl)-5-methoxy-3-[(Z)-{5-[(methylcarbamoyl)amino]-3-oxo-1-benzofuran-2(3H)-ylidene}methyl]-1H-indole-2-carboxamide], the values for the IC50 on PI3K-alpha, against PI3K-gamma and at human TOR were 8 nM, 39 nM and 96 nM, respectively.
Regarding `COc1ccc2c(c1)c(/C=C1\Oc3cc(O)cc(O)c3C1=O)c(C(=O)N(C)C)n2CCN1CCC(O)CC1` [Example 311, 3-[(Z)-(4,6-Dihydroxy-3-oxo-1-benzofuran-2(3H)-ylidene)methyl]-1-[2-(4-hydroxypiperidin-1-yl)ethyl]-5-methoxy-N,N-dimethyl-1H-indole-2-carboxamide], the figures for the IC50 on PI3K-alpha, against PI3K-gamma and at human TOR were 8 nM, 144 nM and 88.5 nM, respectively.
On the same counts, the results for `O=C1/C(=C/c2c(-c3ccccc3)[nH]c3ccccc23)Oc2c(O)cccc21` [Example 67, (2Z)-7-hydroxy-2-[(2-phenyl-1H-indol-3-yl)methylene]-1-benzofuran-3(2H)-one] are 328 nM, 302 nM and 8400 nM.
With `COc1ccc2c(c1)c(/C=C1\Oc3c(ccc(O)c3C)C1=O)c(C)n2CCN1CCN(C)CC1` [Example 347, (2Z)-6-Hydroxy-2-({5-methoxy-2-methyl-1-[2-(4-methylpiperazin-1-yl)ethyl]-1H-indol-3-yl}methylene)-7-methyl-1-benzofuran-3(2H)-one], the IC50 on PI3K-alpha was 408 nM; against PI3K-gamma, 8670 nM; on human TOR, over 4000 nM.

In general, IC50 refers to the concentration at which inhibition is half-maximal.
